According to patent US20260007639A1, “COMPOUNDS FOR THE TREATMENT OF NEUROMUSCULAR DISORDERS” (NMD PHARMA A/S, priority 2017, published 2026):

Tests used:
[1] = tested on: rat soleus muscles; assay: Recovery of force in isolated rat soleus nerve-muscle preparations after 115 nM tubocurarine, 50 μM compound (Table 8); conditions: 40 mins exposure
Method: Force traces from a representative muscle stimulated to contract in 1) control condition before addition of neuromuscular blocking agent, 2) the force response to stimulation after 90 minutes incubation with Tubocurarine. […] The traces presented in FIG. 12A (1, 2, 3), correspond to the dotted lines in FIG. 12B, respectively.
Recovery of force is quantified as the percentage of the force prior to tubocurarine that is recovered by the compound.
The current invention relates to compounds that inhibit CIC-1 ion channels and increase muscle excitability and thereby improve muscle function in clinical conditions where muscle activation is failing. Such conditions result in loss of contractile function of skeletal muscle, weakness and excessive fatigue. In this series of experiments the compounds were tested for their ability to restore contractile function of isolated rat muscle when the neuromuscular transmission had been compromised akin to neuromuscular disorders.
Experimentally, soleus muscles from 4-5 wk old rats were isolated with the motor nerve remaining attached. The nerve-muscle preparations were mounted in experimental setups that enabled electrical stimulation of the motor nerve. Stimulation of the motor nerve led to activation of the muscle fibres and ensuing force production that was recorded.
After mounting the nerve-muscle preparation in the experimental setup, the contractile function of the muscle was initially assessed under the control conditions (FIG. 2A). […] The experimental condition mimics the failing neuromuscular transmission in a range of neuromuscular disorders. After addition of tubocurarine the contractile force declined over the next 90 mins to 10-50% of the control force. 50 μM of the test compound was then added and the contractile force recovered despite the continued presence of tubocurarine. To quantify the ability of the compound to restore force the percentage of the initial force that was restored was determined after 40 mins of compound exposure (FIG. 2B) and the point increase is reported in Table 8.

[2] = tested on: female Lewis rats; assay: In situ isometric hindlimb force in anaesthetised rats with neuromuscular transmission partially inhibited by Cisatracurium; format: in vivo, rat; conditions: 80 Hz stimulation, Cisatracurium infusion
Method: Isometric hindlimb force was measured in 12-week old female Lewis rats in the presence and absence of compound.
Rats were placed under anesthesia with isoflurane (2-4%), intubated and subsequently connected to a micro ventilator (Microvent 1, Hallowell EMC, US). Two stimulation electrodes were inserted through the skin to stimulate the sciatic nerve. A small incision was made proximal to the ankle, to expose the Achilles tendon, which was tied by cotton string, and connected to a force transducer (Fort250, World Precision Instruments) with adjustable position (Vernier control). The Achilles tendon was then cut distal to the attached cotton string. The rat was placed on a heated pad, and to prevent movement artefacts from contraction of the ankle dorsiflexors, the foot was fixated by tape on a footplate.
Muscle contractile properties were assessed by applying an electrical current (under supramaximal voltage conditions) to the nerve and recording the force generated by the muscle. The muscle was stretched until maximal force was obtained, when assessed by 2 Hz stimulation. Isometric force was measured every 30 seconds at 12 Hz (Twitch), 10 pulses, and at every 5 minutes at 80 Hz (Tetanic) for 1 second (80 pulses). This stimulation pattern was employed throughout the experiment, expect in few cases where 80 Hz stimulation was replaced by 12 Hz (10 pulses). […] When the level of neuromuscular inhibition was stable, the test article was injected i.v. at the chosen concentration. The effect of test article was assessed on its ability to increase force generated from the stimulation pattern applied. The effect was assessed in the ability to increase force per se (tetanic, 80 Hz, stimulation), and the ratio between individual twitch peaks (12 Hz stimulation). The effect was monitored for at least 1 hour after injection of test article. In addition, the time from injection of test article to maximal effect on force (both twitch and tetanic) was noted and the time for the effect to disappear (return to baseline), if possible. When appropriate the infusion of neuromuscular blocking agent was ceased, with the stimulation pattern continued, and the return of force to control levels was monitored. Animals were sacrificed by cervical dislocation while still fully sedated.

[3] = molecular target: T1, CIC-1 channels (Rattus norvegicus, UniProt P35524); assay: Electrophysiological measurement of compound inhibition of CIC-1 (Gm) in rat soleus muscle fibres: EC50 (Table 7)
T1 sequence (P35524 1-994): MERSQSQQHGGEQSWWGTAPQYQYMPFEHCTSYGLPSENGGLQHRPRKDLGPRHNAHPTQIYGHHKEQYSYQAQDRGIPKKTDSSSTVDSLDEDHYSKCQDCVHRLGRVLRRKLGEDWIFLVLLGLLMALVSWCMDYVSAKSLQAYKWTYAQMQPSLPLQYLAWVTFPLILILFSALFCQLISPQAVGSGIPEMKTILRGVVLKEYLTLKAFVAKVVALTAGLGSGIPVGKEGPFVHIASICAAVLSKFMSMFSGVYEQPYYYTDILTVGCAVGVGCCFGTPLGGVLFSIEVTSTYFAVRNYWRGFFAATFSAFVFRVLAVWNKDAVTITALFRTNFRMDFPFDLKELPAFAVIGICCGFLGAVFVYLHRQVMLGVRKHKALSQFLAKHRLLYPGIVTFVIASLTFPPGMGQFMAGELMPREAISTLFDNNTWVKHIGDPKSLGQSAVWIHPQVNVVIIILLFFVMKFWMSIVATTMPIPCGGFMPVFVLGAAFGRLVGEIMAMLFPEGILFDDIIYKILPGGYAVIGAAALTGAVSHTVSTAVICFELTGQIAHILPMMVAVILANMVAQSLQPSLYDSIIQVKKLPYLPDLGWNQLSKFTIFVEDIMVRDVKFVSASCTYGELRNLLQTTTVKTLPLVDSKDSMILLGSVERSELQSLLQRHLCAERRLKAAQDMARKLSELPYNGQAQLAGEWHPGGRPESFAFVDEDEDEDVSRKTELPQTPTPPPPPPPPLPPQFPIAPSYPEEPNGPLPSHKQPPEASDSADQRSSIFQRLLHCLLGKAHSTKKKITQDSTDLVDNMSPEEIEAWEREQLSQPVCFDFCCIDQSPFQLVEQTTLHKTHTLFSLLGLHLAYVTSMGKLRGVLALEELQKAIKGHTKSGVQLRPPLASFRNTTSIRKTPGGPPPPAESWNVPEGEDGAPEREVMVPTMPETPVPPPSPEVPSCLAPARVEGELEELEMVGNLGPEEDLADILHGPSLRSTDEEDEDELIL

[4] = molecular target: T2, human CIC-1 channels (Homo sapiens, UniProt P35523); assay: Automated patch-clamp on human CIC-1 expressed in CHO cells: shift of half activation voltage ΔV1/2; format: cell-based; conditions: compound in intracellular solution vs control cell patches; CHO cells expressing human CIC-1
T2 construct: host or cells: CHO (Chinese hamster ovary) cells constitutively expressing human ClC-1
Method: FIGS. 13A-13B: FIG. 13A illustrates the voltage protocol used to evoke currents in whole cell patches of CHO cells expressing human CIC-1 channels.
Experiments were performed using an automated patch clamp system that allowed high throughput testing of whole cell patches together with both intracellular and extracellular addition of compound.
Automated whole cell patch clamp experiments were performed with the Qpatch 16 system (Sophion Bioscience, Ballerup, Denmark) at room temperature. Data acquisition and analysis were performed in the Qassay software (ver. 5.6, Odense).
To evoke CIC-1 currents in whole cell patches, the membrane potential was initially stepped from a holding potential of −30 mV to +60 mV for 100 ms and then to various test voltages (sweeps) ranging from +120 mV to −140 mV in steps of 20 mV for 300 ms. To obtain tail currents, the membrane potential was stepped to −100 mV after each test voltage for 300 ms and then relaxed to −30 mV for 2 sec between sweeps (FIG. 3).
I/V relationships for whole cell instant and steady state current amplitudes were obtained by plotting average current densities at the beginning and at the end of the 300 ms step against the membrane potential (FIG. 4).
In order to determine the relative overall open probability (Po), the instantaneous tail currents were normalized to the maximal tail current obtained following the most positive voltage step and plotted against the test voltage. Plots of normalized tail currents from each whole cell patch were then fitted to a Boltzmann function allowing determination of half activation voltages (V1/2, FIG. 5).
For automated patch clamp experiments extracellular solutions contained: 2 mM CaCl2), 1 mM MgCl2, 10 mM HEPES, 4 mM KCl, 145 mM NaCl, 10 mM Glucose, pH adjusted to 7.4 with NaOH (2 M). Osmolality adjusted to ˜320 using sucrose.
Intracellular solutions contained: 80 mM CsF, 60 mM CsCl, 5/1 mM KOH/EGTA, 10 mM HEPES, 10 mM NaCl, pH adjusted to 7.2 with NaOH (2 M). Osmolality adjusted to ˜320 mOsm using sucrose.
Cells used in patch clamp experiments were Chinese hamster ovary cells (CHO) constitutively expressing human CIC-1 channels. The amino acid sequence encoded by the cDNA used to create this cell line was identical to the translated sequence for GenBank accession number NM_000083.2. Cells were produced by Charles River (Catalogue CT6175, Cleveland OH, USA) in a cryopreserved format. Experiments were performed on the cells directly after thawing (3×10^6 cells used in each experiment).
To evaluate the compound effect on CIC-1, when applied directly to the intracellular side of the cell membrane, the half activation voltage, V1/2, was determined from whole cell patches with compound added to the intracellular solution and then compared to V1/2 determined from control cell patches with only vehicle added to the intracellular solution. Additionally, the effect of extracellular added compound was evaluated by determine V1/2 and steady state current amplitudes before and after exchanging the extracellular solution to contain compound.
The difference in half activation voltage of CIC-1 channels, ΔV1/2, was determined as the difference between the cell patches treated intracellularly with compound and control cells patches and is reported in Table 4 below. A positive shift in ΔV 1/2 is reflecting CIC-1 channel inhibition by the tested compound. P-values of <0.05 is considered significant.

[5] = tested on: rat soleus muscles; assay: Recovery of nerve-stimulated force in isolated rat soleus muscles with ACh receptors inhibited by 2 μM rocuronium; conditions: 2 μM rocuronium alone; 8 muscles
Method: In a separate series of experiments with 8 isolated rat soleus muscles, ACh receptors were inhibited using 2 μM rocuronium, which is a clinically used neuromuscular blocking agent. Under these conditions the nerve-stimulated force was reduced to 51±5% of force before rocuronium. […] This illustrates the potential of these compounds to be used as reversal agents.

T2 sequence (P35523 whole entry): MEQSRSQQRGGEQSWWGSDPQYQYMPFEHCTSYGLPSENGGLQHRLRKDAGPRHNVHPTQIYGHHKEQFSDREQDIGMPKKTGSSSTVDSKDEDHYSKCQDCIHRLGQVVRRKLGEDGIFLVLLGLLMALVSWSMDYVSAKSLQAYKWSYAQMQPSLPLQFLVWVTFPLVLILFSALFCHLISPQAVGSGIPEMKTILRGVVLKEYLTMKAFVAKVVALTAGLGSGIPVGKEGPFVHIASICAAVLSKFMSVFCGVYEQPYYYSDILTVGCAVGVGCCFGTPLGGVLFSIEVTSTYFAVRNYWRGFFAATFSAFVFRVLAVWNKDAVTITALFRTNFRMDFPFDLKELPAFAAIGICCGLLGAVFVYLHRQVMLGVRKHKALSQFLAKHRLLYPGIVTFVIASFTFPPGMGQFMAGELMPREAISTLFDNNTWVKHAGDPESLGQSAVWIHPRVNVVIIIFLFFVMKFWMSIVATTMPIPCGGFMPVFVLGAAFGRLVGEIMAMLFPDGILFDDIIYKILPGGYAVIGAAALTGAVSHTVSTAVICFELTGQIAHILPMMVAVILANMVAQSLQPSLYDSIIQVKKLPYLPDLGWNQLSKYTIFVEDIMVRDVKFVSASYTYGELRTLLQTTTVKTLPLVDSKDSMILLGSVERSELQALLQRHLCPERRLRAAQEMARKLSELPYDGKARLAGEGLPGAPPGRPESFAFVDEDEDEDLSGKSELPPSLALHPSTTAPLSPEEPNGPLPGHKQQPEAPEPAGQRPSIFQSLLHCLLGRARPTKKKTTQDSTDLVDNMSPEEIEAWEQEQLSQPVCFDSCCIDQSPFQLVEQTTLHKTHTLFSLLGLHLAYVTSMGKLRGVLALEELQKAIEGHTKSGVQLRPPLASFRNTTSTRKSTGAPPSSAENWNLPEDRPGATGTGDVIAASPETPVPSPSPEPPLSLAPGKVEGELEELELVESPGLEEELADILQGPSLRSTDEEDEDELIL

Structure (SMILES) | Point increase (%) of initial force that was restored [1] [%] | average increase in tetanic force ([2]; 26.5 mg/kg i.v.) [%] | EC50 [3] [µM] | Δ1/2 (mV) [4] [mV] | average increase in tetanic force ([2]; 40.0 mg/kg i.v.) [%] | nerve-stimulated force, % of force before rocuronium [5] [%]
CCOC[C@H](Oc1ccc(Br)cc1-c1ccon1)C(=O)O [Compound A-81, (2S)-2-[4-bromo-2-(1,2-oxazol-3-yl)phenoxy]-3-ethoxypropanoic acid] | 45 | 52.9 | 8.1 ± 1.2 |  |  | 
C[C@H](Oc1ccc(Br)cc1-c1ccon1)C(=O)O [Compound A-16, (2S)-2-[4-bromo-2-(1,2-oxazol-3-yl)phenoxy]propanoic acid] | 48 |  | 1.8 ± 1.1 | 14.1 |  | 
O=C(O)[C@H](CC1CC1)Oc1ccc(Br)cc1-c1ccon1 [Compound A-33, (2S)-2-[4-bromo-2-(1,2-oxazol-3-yl)phenoxy]-3-cyclopropylpropanoic acid] | 35 |  | 4.6 | 15.1 |  | 
O=C(O)[C@H](CC1CC1)Oc1ccc(Cl)cc1-c1ccon1 [Compound A-41, (2S)-2-[4-chloro-2-(1,2-oxazol-3-yl)phenoxy]-3-cyclopropylpropanoic acid] | 25 |  | 4.3 |  | 36.4 | 
C[C@H](Oc1ccc(Cl)cc1-c1ccsn1)C(=O)O [Compound A-83, (2S)-2-[4-chloro-2-(1,2-thiazol-3-yl)phenoxy]propanoic acid] |  |  |  | 10.3 |  | 
C[C@H](Oc1ccc(Br)cc1-c1nncs1)C(=O)O [Compound A-65, (2S)-2-[4-bromo-2-(1,3,4-thiadiazol-2-yl)phenoxy]propanoic acid] |  |  |  | 12.8 |  | 
C=CC[N+]1([C@H]2C[C@H]3[C@@H]4CC[C@H]5C[C@H](O)[C@@H](N6CCOCC6)C[C@]5(C)[C@H]4CC[C@]3(C)[C@H]2OC(C)=O)CCCC1 [rocuronium, reference compound] |  |  |  |  |  | 51±5
CC[C@H](Oc1ccc(Br)cc1-c1ccon1)C(=O)O [Compound A-2, (2S)-2-[4-bromo-2-(1,2-oxazol-3-yl)phenoxy]butanoic acid] | 27 |  | 4.3 | 7.2 |  | 
C[C@H](Oc1ccc(Br)cc1-c1cocn1)C(=O)O [Compound A-42, (2S)-2-[4-bromo-2-(1,3-oxazol-4-yl)phenoxy]propanoic acid] | 14 |  | 3.2 | 6.8 |  | 
C[C@H](Oc1ccc(Br)cc1-c1ccno1)C(=O)O [Compound A-22, (2S)-2-[4-bromo-2-(1,2-oxazol-5-yl)phenoxy]propanoic acid] | 27 |  | 7.5 | 9.3 |  | 
C[C@H](Oc1ccc(Cl)cc1-c1ccon1)C(=O)O [Compound A-34, (2S)-2-[4-chloro-2-(1,2-oxazol-3-yl)phenoxy]propanoic acid] | 43 |  | 2 | 8.1 |  | 
